# Data reported in US20200031820A1, “3-CARBOXYLIC ACID PYRROLES AS NRF2 REGULATORS” (GLSXOSMITHKLINE INTELLECTUAL PROPERTY DEVELOPMENT LIMITED, priority 2016, published 2020).
# Molecular target: T1, Keap1 (321-609) Kelch domain / TAMRA-labeled 16mer NRF2 peptide (ETGE motif) (Homo sapiens, UniProt Q14145)
# T1 construct: the Kelch domain (321-609) of Keap1 is used
# Assay: NRF2-Keap1 FP Assay
# Format: binding
# Conditions: 20 nM Keap1 (321-609), 8 nM Tamra labeled peptide
# From the text: One model for the NRF2-Keap1 interaction is through two binding sites in the Neh2 domain on NRF2. The two sites are referred to as the DLG binding motif (latch domain, uM affinity) and the ETGE binding motif (hinge domain, nM affinity). The Keap1 protein consists of an N-terminal region (NTR), a broad complex, tramtrack, and brick a'brac domain (BTB), an intervening region (IVR), a double glycine repeat domain (DGR or Kelch), and a C-terminal region. The DLG and ETGE motifs of NRF2's Neh2 domain bind to the Kelch domain of Keap1 at different affinities. In the Keap1 Kelch fluorescence polarization (FP) assay, a TAMRA-labeled 16mer peptide (AFFAQLQLDEETGEFL) containing the ETGE motif of NRF2 and the Kelch domain (321-609) of Keap1 is used. The assay determines if a compound interferes with the binding between Keap1 […] and the TAMRA-labeled peptide. Binding of TAMRA-labeled NRF2 peptide to Keap1 (321-609) results in a high FP signal. If a compound interferes with the binding between the peptide and the protein, it will cause the assay signal to decrease. Thus, assay signal is inversely proportional to binding inhibition.
# 100 nl of 100× compound dose response curves (serial 3-fold dilutions) in DMSO were stamped using an Echo liquid handling system (Labcyte) into 384-well low volume black assay plates (Greiner, #784076), with DMSO in columns 6 and 18. The top concentration of compound was located in columns 1 and 13. Keap1 (321-609) was diluted to 40 nM (2×) in 1× assay buffer (50 mM Tris, pH 8.0, 100 mM NaCl, 5 mM MgCl2, 1 mM DTT, 2 mM CHAPS, and 0.005% BSA) and 5 ul was added using a Multidrop Combi (Thermo Electron Corporation) equipped with a metal tip dispenser to all wells of the compound plate, except column 18. Column 18 received only 5 ul of assay buffer. Immediately, 5 uL of 16 nM (2×) of Tamra labeled peptide (AFFAQLQLDEETGEFL, 21st Century Biochemicals) was added to all wells of the plate. The plates were spun at 500 rpm for 1 min, incubated for 1 hr at room temperature, and read on an Analyst GT (Molecular Devices) equipped with excitation (530/25 nm) and emission (580/10 nm) filters designed for Tamra probes. A 561 nm dichroic mirror was also used in the Analyst. The final assay concentrations of Keap1 (321-609) and Tamra labeled peptide were 20 nM and 8 nM, respectively. Fluorescence measurements, represented as mP, were used in the transformation of the data. Compound activity was calculated based on percent inhibition, normalized against controls in the assay (Control 1 contains the Tamra peptide and Keap1 (321-609) together (0% response) and control 2 contains the Tamra peptide alone (100% response)). Data analysis was handled using the software package Abase XE (Surrey, United Kingdom. The % inhibition values were calculated by the equation:
# 100−(100*((compound response−average control 2)/(average control 1−average control2))). For calculation of pIC50s, Abase XE uses a four parameter equation.
# IC50s<1 nM (+++++), IC50s 1 nM-10 nM (++++), IC50s 10-100 nM (+++), IC50s 100 nM-1 μM (++), IC50s 1-10 μM (+), IC50s >10 μM (−), or were not determined (ND).
# T1 sequence (Q14145 321-609): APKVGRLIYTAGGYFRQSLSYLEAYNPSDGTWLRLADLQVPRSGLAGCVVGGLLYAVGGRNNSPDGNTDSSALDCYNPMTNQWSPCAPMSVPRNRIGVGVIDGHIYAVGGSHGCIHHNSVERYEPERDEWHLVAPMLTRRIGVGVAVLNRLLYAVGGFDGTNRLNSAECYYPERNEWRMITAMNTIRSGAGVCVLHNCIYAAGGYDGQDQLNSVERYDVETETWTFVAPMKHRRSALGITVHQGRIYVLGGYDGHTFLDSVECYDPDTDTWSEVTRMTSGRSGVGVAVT
row,SMILES,EC50 [nM]
1,"Cc1c(CN2C[C@@H](C)Cc3ccc(C(F)(F)F)cc3S2(=O)=O)cccc1-n1ccc(C(=O)O)c1[C@@H]1C[C@H]1c1cn(C)nn1 (racemic) [Example 10, rac-2-(trans-2-(1-methyl-1H-1,2,3-triazol-4-yl)cyclopropyl)-1-(2-methyl-3-(((S)-4-methyl-1,1-dioxido-8-(trifluoromethyl)-4,5-dihydrobenzo[f][1,2]thiazepin-2(3H)-yl)methyl)phenyl)-1H-pyrrole-3-carboxylic acid]",100 to 1000
2,"C[C@H](Oc1cccc(-c2cccc(-n3ccc(C(=O)O)c3[C@@H]3C[C@H]3c3cn(C)nn3)c2)c1)C1CCCCC1 (racemic) [Example 13, 1-(3′-((S)-1-Cyclohexylethoxy)-[1,1′-biphenyl]-3-yl)-2-(trans-2-(1-methyl-1H-1,2,3-triazol-4-yl)cyclopropyl)-1H-pyrrole-3-carboxylic acid]",10 to 100
3,"CC[C@H]1Cc2ccc(Br)cc2S(=O)(=O)N(Cc2cccc(-n3ccc(C(=O)O)c3[C@@H]3C[C@H]3c3cn(C)nn3)c2)C1 [Example 9, 1-(3-(((S)-8-bromo-4-ethyl-1,1-dioxido-4,5-dihydrobenzo[f][1,2]thiazepin-2(3H)-yl)methyl)phenyl)-2-((1R,2R)-2-(1-methyl-1H-1,2,3-triazol-4-yl)cyclopropyl)-1H-pyrrole-3-carboxylic acid]",10 to 100
4,CCC[C@@H]1CCCCN1C(=O)c1cccc(-c2cccc(-n3ccc(C(=O)O)c3[C@@H]3C[C@H]3c3cn(C)nn3)c2)c1Br [Example 22],10 to 100
5,"CCCC[C@H]1Cc2ccccc2S(=O)(=O)N(Cc2cccc(-n3ccc(C(=O)O)c3[C@@H]3C[C@H]3c3cn(C)nn3)c2)C1 [Example 3, 1-(3-(((S)-4-butyl-1,1-dioxido-4,5-dihydrobenzo[f][1,2]thiazepin-2(3H)-yl)methyl)phenyl)-2-((1R,2R)-2-(1-methyl-1H-1,2,3-triazol-4-yl)cyclopropyl)-1H-pyrrole-3-carboxylic acid]",10 to 100
6,Cn1cc([C@@H]2C[C@H]2c2c(C(=O)O)ccn2-c2cccc(CN3Cc4cc(Br)ccc4OC(C)(C)C3)c2)nn1 (racemic) [Example 20],10 to 100
7,"C[C@H](Oc1cccc(-c2cccc(-n3ccc(C(=O)O)c3[C@H]3C[C@@H]3c3cn(C)nn3)c2)c1)C1CCCCC1 [Example 17, 1-(3′-((S)-1-cyclohexylethoxy)-[1,1′-biphenyl]-3-yl)-2-((1S,2S)-2-(1-methyl-1H-1,2,3-triazol-4-yl)cyclopropyl)-1H-pyrrole-3-carboxylic acid]",10 to 100
8,"C[C@H]1Cc2cc(C(F)(F)F)ccc2S(=O)(=O)N(Cc2cccc(-n3ccc(C(=O)O)c3[C@@H]3C[C@H]3c3cn(C)nn3)c2)C1 (racemic) [Example 2, 1-(3-(((S)-4-methyl-1,1-dioxido-7-(trifluoromethyl)-4,5-dihydrobenzo[f][1,2]thiazepin-2(3H)-yl)methyl)phenyl)-2-(trans-2-(1-methyl-1H-1,2,3-triazol-4-yl)cyclopropyl)-1H-pyrrole-3-carboxylic acid]",10 to 100
9,CCC[C@@H]1CCCCN1C(=O)c1cc(F)cc(-c2cccc(-n3ccc(C(=O)O)c3[C@@H]3C[C@H]3c3cn(C)nn3)c2)c1 [Example 23],10 to 100
10,"CCCC[C@H]1Cc2ccc(C(F)(F)F)cc2S(=O)(=O)N(Cc2cccc(-n3ccc(C(=O)O)c3[C@@H]3C[C@H]3c3cn(C)nn3)c2)C1 [Example 6, 1-(3-(((S)-4-butyl-1,1-dioxido-8-(trifluoromethyl)-4,5-dihydrobenzo[f][1,2]thiazepin-2(3H)-yl)methyl)phenyl)-2-((1R,2R)-2-(1-methyl-1H-1,2,3-triazol-4-yl)cyclopropyl)-1H-pyrrole-3-carboxylic acid]",10 to 100
11,"C[C@H]1Cc2ccc(C(F)(F)F)cc2S(=O)(=O)N(C2CCc3c2cccc3-n2ccc(C(=O)O)c2C2CC2)C1 (mixture of isomers) [Example 12, 2-Cyclopropyl-1-(1-((S)-4-methyl-1,1-dioxido-8-(trifluoromethyl)-4,5-dihydrobenzo[f][1,2]thiazepin-2(3H)-yl)-2,3-dihydro-1H-inden-4-yl)-1H-pyrrole-3-carboxylic acid]",1000 to 10000
12,CCC[C@@H]1CCCCN1C(=O)c1cccc(-c2cccc(-n3ccc(C(=O)O)c3[C@@H]3C[C@H]3c3cn(C)nn3)c2)c1C(F)(F)F [Example 24],100 to 1000
13,"Cc1ccc(CN2C[C@@H](C)Cc3ccc(C(F)(F)F)cc3S2(=O)=O)cc1-n1ccc(C(=O)O)c1[C@@H]1C[C@H]1c1cn(C)nn1 (racemic) [Example 11, rac-2-(trans-2-(1-methyl-1H-1,2,3-triazol-4-yl)cyclopropyl)-1-(2-methyl-5-(((S)-4-methyl-1,1-dioxido-8-(trifluoromethyl)-4,5-dihydrobenzo[f][1,2]thiazepin-2(3H)-yl)methyl)phenyl)-1H-pyrrole-3-carboxylic acid]",100 to 1000
14,"C[C@H]1Cc2ccc(C(F)(F)F)cc2S(=O)(=O)N(Cc2cccc(-n3ccc(C(=O)O)c3[C@@H]3C[C@H]3c3cn(C)nn3)c2)C1 (racemic) [Example 1, 1-(3-(((S)-4-Methyl-1,1-dioxido-8-(trifluoromethyl)-4,5-dihydrobenzo[f]-[1,2]thiazepin-2(3H)-yl)methyl)phenyl)-2-(trans-2-(1-methyl-1H-1,2,3-triazol-4-yl)cyclopropyl)-1H-pyrrole-3-carboxylic acid]",10 to 100

# Other lines, results leading:
row,EC50 [nM],SMILES
1,10 to 100,"CCC[C@@H]1CCCCN1C(=O)c1cccc(-c2cccc(-n3ccc(C(=O)O)c3[C@@H]3C[C@H]3c3cn(C)nn3)c2)c1F (racemic) [Example 15, 1-(2′-fluoro-3′-((R)-2-propylpiperidine-1-carbonyl)-[1,1′-biphenyl]-3-yl)-2-(trans-2-(1-methyl-1H-1,2,3-triazol-4-yl)cyclopropyl)-1H-pyrrole-3-carboxylic acid]"
2,10 to 100,"CC[C@H]1Cc2cc(C(F)(F)F)ccc2S(=O)(=O)N(Cc2cccc(-n3ccc(C(=O)O)c3[C@@H]3C[C@H]3c3cn(C)nn3)c2)C1 [Example 7, 1-(3-(((S)-4-ethyl-1,1-dioxido-7-(trifluoromethyl)-4,5-dihydrobenzo[f][1,2]thiazepin-2(3H)-yl)methyl)phenyl)-2-((1R,2R)-2-(1-methyl-1H-1,2,3-triazol-4-yl)cyclopropyl)-1H-pyrrole-3-carboxylic acid]"
3,10 to 100,Cn1cc([C@@H]2C[C@H]2c2c(C(=O)O)ccn2-c2cccc(CN3Cc4ccccc4CC(C)(C)C3)c2)nn1 (racemic) [Example 21]
4,10 to 100,"CCC[C@@H]1CCCCN1C(=O)c1cccc(-c2cccc(-n3ccc(C(=O)O)c3[C@@H]3C[C@H]3c3cn(C)nn3)c2)c1 (racemic) [Example 14, 2-(trans-2-(1-methyl-1H-1,2,3-triazol-4-yl)cyclopropyl)-1-(3′-((R)-2-propylpiperidine-1-carbonyl)-[1,1′-biphenyl]-3-yl)-1H-pyrrole-3-carboxylic acid]"
5,10 to 100,Cn1cc([C@@H]2C[C@H]2c2c(C(=O)O)ccn2-c2cccc(CN3Cc4cc(F)ccc4OC(C)(C)C3)c2)nn1 (racemic) [Example 19]
6,10 to 100,"C[C@H]1Cc2ccc(Br)cc2S(=O)(=O)N(Cc2cccc(-n3ccc(C(=O)O)c3[C@@H]3C[C@H]3c3cn(C)nn3)c2)C1 [Example 8, 1-(3-(((S)-8-bromo-4-methyl-1,1-dioxido-4,5-dihydrobenzo[f][1,2]thiazepin-2(3H)-yl)methyl)phenyl)-2-((1R,2R)-2-(1-methyl-1H-1,2,3-triazol-4-yl)cyclopropyl)-1H-pyrrole-3-carboxylic acid]"
